Measured values: patent US11274083B2, “Substituted thiophenyl uracils, salts thereof and the use thereof as herbicidal agents” (Syngenta Crop Protection AG, priority 2017, dated 2022)

Key:
Assay type in all cases: in vivo
Zea mays = experiment: Crop compatibility post-emergence, greenhouse pot test
Outline: (§1)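 Greenhouse post-emergence spray at one-leaf stage, 600 L/ha with 0.5% additive. Injury was assessed visually after about 3 weeks as % of untreated control.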

Oryza sativa = experiment: as above
Outline: as §1

Veronica persica [1] = experiment: Herbicidal action post-emergence, greenhouse pot test
Outline: (§2)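 Weeds were sown in sandy loam and grown in a greenhouse for 2 to 3 weeks, then sprayed at the one-leaf stage with WP or EC formulations plus 0.5% additive at 600 L/ha water, at 80 g/ha or lower. Efficacy was scored visually about 3 weeks later against untreated controls.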

Viola tricolor [2] = experiment: as above
Outline: as §2

Avena fatua [3] = experiment: as above; conditions: application rate 20 g/ha
Outline: as §2

Stellaria media [4] = experiment: as above
Outline: as §2

Amaranthus retroflexus [5] = experiment: as above
Outline: as §2

Abutilon theophrasti [6] = experiment: as above
Outline: as §2

Pharbitis purpurea [7] = experiment: as above
Outline: as §2

Polygonum convolvulus [8] = experiment: as above
Outline: as §2

Hordeum murinum [9] = experiment: as above
Outline: as §2

Setaria viridis [10] = experiment: as above
Outline: as §2

Matricaria inodora [11] = experiment: as above
Outline: as §2

Echinochloa crus-galli [12] = experiment: as above
Outline: as §2

Lolium rigidum [13] = experiment: as above
Outline: as §2

Alopecurus myosuroides [14] = experiment: as above; conditions: scored visually after about 3 weeks vs untreated controls
Outline: as §2

Digitaria sanguinalis = experiment: as above; conditions: application rate 20 g/ha
Matricaria inodora [15] = experiment: Herbicidal action pre-emergence, greenhouse pot test
Veronica persica [16] = experiment: as above
Outline: (§3)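 Seeds were sown in pots and covered with soil, then compounds formulated as WP or EC were sprayed onto the soil surface as aqueous suspension or emulsion with 0.5% additive at 600 L/ha water, 320 g/ha or lower. After about 3 weeks in the greenhouse, efficacy was scored visually as % versus untreated controls.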

Viola tricolor [17] = experiment: as above
Outline: as §3

Avena fatua [18] = experiment: as above; conditions: application rate 320 g/ha
Outline: as §3

Stellaria media [19] = experiment: as above
Outline: as §3

Amaranthus retroflexus [20] = experiment: as above
Outline: as §3

Abutilon theophrasti [21] = experiment: as above
Outline: as §3

Pharbitis purpurea [22] = experiment: as above
Outline: as §3

Polygonum convolvulus [23] = experiment: as above
Outline: as §3

Hordeum murinum [24] = experiment: as above; conditions: application rate 320 g/ha
Outline: as §3

Setaria viridis [25] = experiment: as above
Outline: as §3

Echinochloa crus-galli [26] = experiment: as above; conditions: application rate 320 g/ha
Outline: as §3

Lolium rigidum [27] = experiment: as above
Outline: as §3

Alopecurus myosuroides [28] = experiment: as above; conditions: application rate 320 g/ha
Outline: as §3

Cyperus esculentus = experiment: as above; conditions: application rate 320 g/ha
Outline: as §3

Triticum aestivum = experiment: Crop compatibility post-emergence, greenhouse pot test; conditions: application rate 5 g/ha
Outline: as §1

Compound	Stellaria media (Efficacy in %) (Stellaria media [4]; application rate 20 g/ha)	Amaranthus retroflexus (Efficacy in %) (Amaranthus retroflexus [5]; application rate 20 g/ha)	Polygonum convolvulus (Efficacy in %) (Polygonum convolvulus [8]; application rate 20 g/ha)	Hordeum murinum (Efficacy in %) (Hordeum murinum [9]; application rate 20 g/ha)	Setaria viridis (Efficacy in %) (Setaria viridis [10]; application rate 20 g/ha)	Matricaria inodora (Efficacy in %) (Matricaria inodora [11]; application rate 20 g/ha)	Veronica persica (Efficacy in %) (Veronica persica [1]; application rate 80 g/ha)	Viola tricolor (Efficacy in %) (Viola tricolor [2]; application rate 80 g/ha)	Stellaria media (Efficacy in %) (Stellaria media [4]; application rate 80 g/ha)	Abutilon theophrasti (Efficacy in %) (Abutilon theophrasti [6]; application rate 80 g/ha)	Pharbitis purpurea (Efficacy in %) (Pharbitis purpurea [7]; application rate 80 g/ha)	Polygonum convolvulus (Efficacy in %) (Polygonum convolvulus [8]; application rate 80 g/ha)	Hordeum murinum (Efficacy in %) (Hordeum murinum [9]; application rate 80 g/ha)	Echinochloa crus-galli (Efficacy in %) (Echinochloa crus-galli [12]; application rate 80 g/ha)	Lolium rigidum (Efficacy in %) (Lolium rigidum [13]; application rate 80 g/ha)	Alopecurus myosuroides (Efficacy in %) (Alopecurus myosuroides [14]; application rate 80 g/ha)	Veronica persica (Efficacy in %) (Veronica persica [16]; application rate 80 g/ha)	Avena fatua (Efficacy in %) (Avena fatua [18])	Hordeum murinum (Efficacy in %) (Hordeum murinum [24])	Echinochloa crus-galli (Efficacy in %) (Echinochloa crus-galli [26])	further results
CC(Sc1cc(-n2c(=O)cc(C(F)(F)F)n(C)c2=O)c(F)cc1Cl)C(=O)OC1COC(=O)C1 (stereo not shown) [I.1-144]	80%	100%	100%	80%	100%	100%															Zea mays (Efficacy in %) (Zea mays; application rate 5 g/ha): 10%; Oryza sativa (Efficacy in %) (Oryza sativa; application rate 5 g/ha): 20%; Veronica persica (Efficacy in %) (Veronica persica [1]; application rate 20 g/ha): 100%; Viola tricolor (Efficacy in %) (Viola tricolor [2]; application rate 20 g/ha): 100%; Avena fatua (Efficacy in %) (Avena fatua [3]): 100%; Abutilon theophrasti (Efficacy in %) (Abutilon theophrasti [6]; application rate 20 g/ha): 100%; Pharbitis purpurea (Efficacy in %) (Pharbitis purpurea [7]; application rate 20 g/ha): 100%; Echinochloa crus-galli (Efficacy in %) (Echinochloa crus-galli [12]; application rate 20 g/ha): 100%; Lolium rigidum (Efficacy in %) (Lolium rigidum [13]; application rate 20 g/ha): 100%; Alopecurus myosuroides (Efficacy in %) (Alopecurus myosuroides [14]; application rate 20 g/ha): 80%; Digitaria sanguinalis (Efficacy in %) (Digitaria sanguinalis): 80%
CC(C)NC(=O)COC(=O)C(C)Sc1cc(-n2c(=O)cc(C(F)(F)F)n(C)c2=O)c(F)cc1Cl (stereo not shown) [I.1-184]					100%		100%	100%	100%	100%	100%	100%	80%	100%	100%	80%	100%	90%	90%	100%	Matricaria inodora (Efficacy in %) (Matricaria inodora [15]; application rate 80 g/ha): 100%; Zea mays (Efficacy in %) (Zea mays; application rate 20 g/ha): 20%; Amaranthus retroflexus (Efficacy in %) (Amaranthus retroflexus [5]; application rate 80 g/ha): 100%; Matricaria inodora (Efficacy in %) (Matricaria inodora [11]; application rate 80 g/ha): 100%; Viola tricolor (Efficacy in %) (Viola tricolor [17]; application rate 80 g/ha): 100%; Stellaria media (Efficacy in %) (Stellaria media [19]; application rate 80 g/ha): 100%; Amaranthus retroflexus (Efficacy in %) (Amaranthus retroflexus [20]; application rate 80 g/ha): 100%; Abutilon theophrasti (Efficacy in %) (Abutilon theophrasti [21]; application rate 80 g/ha): 100%; Pharbitis purpurea (Efficacy in %) (Pharbitis purpurea [22]; application rate 80 g/ha): 100%; Polygonum convolvulus (Efficacy in %) (Polygonum convolvulus [23]; application rate 80 g/ha): 100%; Setaria viridis (Efficacy in %) (Setaria viridis [25]; application rate 80 g/ha): 100%; Lolium rigidum (Efficacy in %) (Lolium rigidum [27]; application rate 320 g/ha): 100%; Alopecurus myosuroides (Efficacy in %) (Alopecurus myosuroides [28]): 90%
COC(=O)CCOC(=O)CSc1cc(-n2c(=O)cc(C(F)(F)F)n(C)c2=O)c(F)cc1Cl [I.8-2]	100%	100%	100%	80%		100%	100%	100%		100%	100%			100%	90%	80%	100%	80%	80%	100%	Matricaria inodora (Efficacy in %) (Matricaria inodora [15]; application rate 320 g/ha): 100%; Setaria viridis (Efficacy in %) (Setaria viridis [10]; application rate 80 g/ha): 100%; Viola tricolor (Efficacy in %) (Viola tricolor [17]; application rate 320 g/ha): 100%; Stellaria media (Efficacy in %) (Stellaria media [19]; application rate 320 g/ha): 100%; Amaranthus retroflexus (Efficacy in %) (Amaranthus retroflexus [20]; application rate 20 g/ha): 100%; Abutilon theophrasti (Efficacy in %) (Abutilon theophrasti [21]; application rate 320 g/ha): 100%; Pharbitis purpurea (Efficacy in %) (Pharbitis purpurea [22]; application rate 320 g/ha): 100%; Polygonum convolvulus (Efficacy in %) (Polygonum convolvulus [23]; application rate 320 g/ha): 100%; Cyperus esculentus (Efficacy in %) (Cyperus esculentus): 90%; Setaria viridis (Efficacy in %) (Setaria viridis [25]; application rate 320 g/ha): 100%; Lolium rigidum (Efficacy in %) (Lolium rigidum [27]; application rate 80 g/ha): 90%; Alopecurus myosuroides (Efficacy in %) (Alopecurus myosuroides [28]): 80%
COC(=O)COC(=O)CSc1cc(-n2c(=O)cc(C(F)(F)F)n(C)c2=O)c(F)cc1Cl [I.8-42]		100%				100%	100%	100%	100%	100%	100%	100%	80%	100%				80%	80%	100%	Matricaria inodora (Efficacy in %) (Matricaria inodora [15]; application rate 320 g/ha): 100%; Triticum aestivum (Efficacy in %) (Triticum aestivum): 20%; Oryza sativa (Efficacy in %) (Oryza sativa; application rate 20 g/ha): 0%; Setaria viridis (Efficacy in %) (Setaria viridis [10]; application rate 80 g/ha): 100%; Veronica persica (Efficacy in %) (Veronica persica [16]; application rate 320 g/ha): 100%; Viola tricolor (Efficacy in %) (Viola tricolor [17]; application rate 320 g/ha): 100%; Stellaria media (Efficacy in %) (Stellaria media [19]; application rate 320 g/ha): 100%; Amaranthus retroflexus (Efficacy in %) (Amaranthus retroflexus [20]; application rate 20 g/ha): 100%; Abutilon theophrasti (Efficacy in %) (Abutilon theophrasti [21]; application rate 320 g/ha): 100%; Pharbitis purpurea (Efficacy in %) (Pharbitis purpurea [22]; application rate 320 g/ha): 100%; Polygonum convolvulus (Efficacy in %) (Polygonum convolvulus [23]; application rate 320 g/ha): 100%; Cyperus esculentus (Efficacy in %) (Cyperus esculentus): 100%; Setaria viridis (Efficacy in %) (Setaria viridis [25]; application rate 320 g/ha): 100%; Lolium rigidum (Efficacy in %) (Lolium rigidum [27]; application rate 320 g/ha): 80%
